US20250154197A1, “LIPOLYTIC PEPTIDES” (FUNDACIÓ HOSPITAL UNIVERSITARI VALL D'HEBRON - INSTITUT DE …, priority 2021, published 2025)
Where no end group is shown, it is not given here. [ ]: non-standard residue; d: D form. The star is where a group is joined. Palmitoyl = CCCCCCCCCCCCCCCC(=O)*; Propionyl = CCC(=O)*

Test system: human subcutaneoous mature adipocytes
Assay: Lipolytic activity: glycerol release in human adipocytes (Lipolysis Assay kit)
Type: cell-based
Conditions: human subcutaneous mature adipocytes

Row | Substance | Lipolysis Activity measured as Glycerol (μM) release in media (100 μg/ml) [µM] | Lipolysis Activity measured as Glycerol (μM) release in media (25 μg/ml) [µM] | Lipolysis Activity measured as Glycerol (μM) release in media (50 μg/ml) [µM]
1 | Ac-LN-LD-LP-LE-G-LL-LY (Ac-NDPEGLY) [Acetyl-NH-GP3DM-12, N-term CH3CONH, C-term COOH] | 138.6 | – | –
2 | Ac-NDLEGLY (Ac-[dN][dD][dL][dE]G[dL][dY]-OH; SMILES CC(=O)N[C@H](CC(N)=O)C(=O)N[C@H](CC(=O)O)C(=O)N[C@H](CC(C)C)C(=O)N[C@H](CCC(=O)O)C(=O)NCC(=O)N[C@H](CC(C)C)C(=O)N[C@H](Cc1ccc(O)cc1)C(=O)O) [GP3DM-25, N-term CH3CONH, C-term COOH] | 121.6 | 134.2 | 104.4
3 | Ac-NDLEGLY-NH2 (Ac-[dN][dD][dL][dE]G[dL][dY]-NH2; SMILES CC(=O)N[C@H](CC(N)=O)C(=O)N[C@H](CC(=O)O)C(=O)N[C@H](CC(C)C)C(=O)N[C@H](CCC(=O)O)C(=O)NCC(=O)N[C@H](CC(C)C)C(=O)N[C@H](Cc1ccc(O)cc1)C(N)=O) [GP3DM-29, N-term CH3CONH, C-term CONH2] | 131.9 | 123.8 | 72.4
4 | Ac-NDPEGLY (Ac-[dN][dD][dP][dE]G[dL][dY]-OH; SMILES CC(=O)N[C@H](CC(N)=O)C(=O)N[C@H](CC(=O)O)C(=O)N1CCC[C@@H]1C(=O)N[C@H](CCC(=O)O)C(=O)NCC(=O)N[C@H](CC(C)C)C(=O)N[C@H](Cc1ccc(O)cc1)C(=O)O) [Acetyl-NH-EDL67, N-term CH3CONH, C-term COOH] | 74.2 | 66.2 | 121.0
5 | Ac-NDPEGLY-NH2 (Ac-[dN][dD][dP][dE]G[dL][dY]-NH2; SMILES CC(=O)N[C@H](CC(N)=O)C(=O)N[C@H](CC(=O)O)C(=O)N1CCC[C@@H]1C(=O)N[C@H](CCC(=O)O)C(=O)NCC(=O)N[C@H](CC(C)C)C(=O)N[C@H](Cc1ccc(O)cc1)C(N)=O) [GP3DM-27, N-term CH3CONH, C-term CONH2] | 142.7 | 72.6 | 133.3
6 | CH3(CH2)14CONH-NDLEGLY (Palmitoyl-[dN][dD][dL][dE]G[dL][dY]-OH; SMILES CCCCCCCCCCCCCCCC(=O)N[C@H](CC(N)=O)C(=O)N[C@H](CC(=O)O)C(=O)N[C@H](CC(C)C)C(=O)N[C@H](CCC(=O)O)C(=O)NCC(=O)N[C@H](CC(C)C)C(=O)N[C@H](Cc1ccc(O)cc1)C(=O)O) [GP3DM-28, N-term CH3(CH2)14CONH, C-term COOH] | 106.0 | 50.5 | 122.6
7 | DN-LD-LP-LE-G-LL-LY ([dN]DPEGLY) [GP3DM-13, N-term NH2, C-term COOH] | 42.1 | – | 49.5
8 | EtCONH-NDLEGLY (Propionyl-[dN][dD][dL][dE]G[dL][dY]-OH; SMILES CCC(=O)N[C@H](CC(N)=O)C(=O)N[C@H](CC(=O)O)C(=O)N[C@H](CC(C)C)C(=O)N[C@H](CCC(=O)O)C(=O)NCC(=O)N[C@H](CC(C)C)C(=O)N[C@H](Cc1ccc(O)cc1)C(=O)O) [GP3DM-26, N-term CH3CH2CONH, C-term COOH] | 149.6 | 98.4 | 140.0
9 | LN-DD-LP-LE-G-LL-LY (N[dD]PEGLY) [GP3DM-14, N-term NH2, C-term COOH] | 52.8 | – | 53.1
10 | LN-LD-DP-LE-G-LL-LY (ND[dP]EGLY) [GP3DM-15, N-term NH2, C-term COOH] | 47.2 | – | 42.0
11 | LN-LD-LP-DE-G-LL-LY (NDP[dE]GLY) [GP3DM-16, N-term NH2, C-term COOH] | 44.1 | – | 41.5
12 | LN-LD-LP-LE-G-DL-LY (NDPEG[dL]Y) [GP3DM-17, N-term NH2, C-term COOH] | 53.6 | – | 47.4
13 | LN-LD-LP-LE-G-LL-DY (NDPEGL[dY]) [GP3DM-18, N-term NH2, C-term COOH] | 63.5 | – | 44.4
14 | NDEGLFY (H-[dN][dD][dE]G[dL][dF][dY]-OH; SMILES CC(C)C[C@@H](NC(=O)CNC(=O)[C@@H](CCC(=O)O)NC(=O)[C@@H](CC(=O)O)NC(=O)[C@H](N)CC(N)=O)C(=O)N[C@H](Cc1ccccc1)C(=O)N[C@H](Cc1ccc(O)cc1)C(=O)O) [GP3DM-19, N-term NH2, C-term COOH] | 123.3 | 87.1 | 64.0
15 | NDEGLY [GP3DM-22] (H-[dN][dD][dE]G[dL][dY]-OH; SMILES CC(C)C[C@@H](NC(=O)CNC(=O)[C@@H](CCC(=O)O)NC(=O)[C@@H](CC(=O)O)NC(=O)[C@H](N)CC(N)=O)C(=O)N[C@H](Cc1ccc(O)cc1)C(=O)O) [N-term NH2, C-term COOH] | 131.9 | 52.1 | 59.5
16 | NDEGLY [GP3DM-23] (H-[dN][dD][dE]G[dL][dY]-OH; SMILES CC(C)C[C@@H](NC(=O)CNC(=O)[C@@H](CCC(=O)O)NC(=O)[C@@H](CC(=O)O)NC(=O)[C@H](N)CC(N)=O)C(=O)N[C@H](Cc1ccc(O)cc1)C(=O)O) [N-term NH2, C-term COOH] | 170.0 | 139.7 | 97.7
17 | NDEGLY [GP3DM-24] (H-[dN][dD][dE]G[dL][dY]-OH; SMILES CC(C)C[C@@H](NC(=O)CNC(=O)[C@@H](CCC(=O)O)NC(=O)[C@@H](CC(=O)O)NC(=O)[C@H](N)CC(N)=O)C(=O)N[C@H](Cc1ccc(O)cc1)C(=O)O) [N-term NH2, C-term COOH] | 148.6 | 105.2 | 111.0
18 | NDLEGLY (H-[dN][dD][dL][dE]G[dL][dY]-OH; SMILES CC(C)C[C@@H](NC(=O)CNC(=O)[C@@H](CCC(=O)O)NC(=O)[C@@H](CC(C)C)NC(=O)[C@@H](CC(=O)O)NC(=O)[C@H](N)CC(N)=O)C(=O)N[C@H](Cc1ccc(O)cc1)C(=O)O) [GP3DM-21, N-term NH2, C-term COOH] | 102.5 | 116.5 | 116.7
